According to patent US11976076B1 (priority 2023, dated 2024):
Values after ≈ are worked out from the molar mass of the structure shown.

What follows are molecules tested on multidrug-resistant (MDR) strains of Mycobacterium tuberculosis (assay: microbe, parasite or virus in culture). Settings: 192 h, read-out: Anti-tubercular activity (MIC) MDR-TB.
Type: cell-based
O=c1[nH]c(=O)c2c(-c3c[nH]c4ccccc34)nc(=S)[nH]c2[nH]1 [Compound 4a, 5-(1H-Indol-3-yl)-7-thioxo-7,8-dihydropyrimido[4,5-d]pyrimidine-2,4(1H,3H)-dione] gave an MIC of 16 mg/L (≈ 51.4 µM). O=c1[nH]c(=S)[nH]c2[nH]c(=S)nc(-c3c[nH]c4ccccc34)c12 [Compound 4b, 5-(1H-Indol-3-yl)-2,7-dithioxo-2,3,7,8-tetrahydropyrimido[4,5-d]pyrimidin-4(1H)-one] gave an MIC of 8 mg/L (≈ 24.4 µM). With Cn1c(=O)c2c(-c3c[nH]c4ccccc34)nc(=S)[nH]c2n(C)c1=O [Compound 4c, 5-(1H-Indol-3-yl)-1,3-dimethyl-7-thioxo-7,8-dihydropyrimido[4,5-d]pyrimidine-2,4(1H,3H)-dione] the MIC was 4 mg/L (≈ 11.8 µM).
